Values quoted from earlier work, collected in US20220354953A1, “PHOTODYNAMIC THERAPY COMPOSITIONS AND METHODS OF TREATMENT THEREIN” (Pinnacle Biologics, Inc., priority 2021, published 2022).

## porfimer sodium
  time stable when reconstituted with saline: 24 h
